Measured values published in patent EP3529257B1, “[…] METHODS OF USE THEREOF” (Sage Therapeutics, Inc., priority 2016, dated 2018).

Legend:
[1] = target: T1, GlunN1/GluN2A glutamate receptors (Homo sapiens, UniProt Q05586+Q12879); test: Whole-cell patch clamp of mammalian cells (Ionworks Barracuda), positive allosteric modulation (PAM) of NMDA receptor, 2A; format: cell-based; conditions: for Avg Emax 2A (%) / EC50: HEK293 cells; for Avg Emax 2A (%) / Emax: % activation of current elicited with EC20 L-glutamate and 30 µM glycine; for EC50: co-application with EC20 L-glutamate and 30 µM glycine, 8-point concentration-response; for Emax: HEK293, HEK293 cells
T1 construct: expressed in transfected cells
Description: (§1) The measurements were perfomed using Ion Works Barracuda platform following this procedure: • Electrophysiological Procedures: • a) Intracellular solution (mM): 50 mM CsCl, 90 mM CsF, 2 mM MgCl2, 5 mM EGTA, 10 mM HEPES. Adjust to pH 7.2 with CsOH. • b) Extracellular solution, HB-PS (composition in mM): NaCl, 137; KCl, 1.0; CaCl2, 5; HEPES, 10; Glucose, 10; pH adjusted to 7.4 with NaOH (refrigerated until use). • c) Holding potential: -70 mV, potential during agonist/PAM application: -40 mV. • Recording procedure: • a) Extracellular buffer will be loaded into the PPC plate wells (11 µL per well). Cell suspension will be pipetted into the wells (9 µL per well) of the PPC planar electrode. • b) Whole-cell recording configuration will be established via patch perforation with membrane currents recorded by on-board patch clamp amplifiers. • c) Two recordings (scans) will be performed. First, during pre-application of test article alone (duration of pre-application - 5 min) and second, during test articles and agonist (EC20 L-glutamate and 30 µM glycine) co-application to detect positive modulatory effects of the test article.
(§2) Test Article Administration: The first pre-application will consist of the addition of 20 µL of 2X concentrated test article solution and, second, of 20 µL of 1X concentrated test article and agonist at 10 µL/s (2 second total application time).
(§3) PAM concentration-response data will be fitted to an equation of the form: % Activation = % L−glutamate EC20 + {(%MAX−%L−glutamateEC20)/[1+(([Test]/; EC50))^N]}, [formula] where [Test] will be the concentration of PAM (test article), EC50 will be the concentration of PAM producing half-maximal activation, N will be the Hill coefficient, % L-glutamate EC20 will be the percentage of the current Elicited with L-glutamate EC20, % MAX is the percentage of the current activated with the highest dose of PAM co-admitted with L-glutamate EC20 and % Activation will be the percentage of the current elicited with L-glutamate EC10-30 at each PAM concentration.
(§4) The maximal amplitude of the evoked currents are measured and defined as Peak Current Amplitude (PCA).

[2] = target: T2, GluN2B glutamate receptors (Homo sapiens, UniProt Q05586+Q13224); test: Whole-cell patch clamp of mammalian cells (Ionworks Barracuda), positive allosteric modulation (PAM) of NMDA receptor, 2B; format: cell-based; conditions: for Avg Emax 2B (%) / Emax: % activation of current elicited with EC20 L-glutamate and 30 µM glycine; for EC50: co-application with EC20 L-glutamate and 30 µM glycine, 8-point concentration-response
T2 construct: expressed in transfected cells; host or cells: mammalian cells (line not described for GluN2B)
Description: as §1, §2, §3, §4

T1 sequence (Q12879 23-1464, other chains not shown): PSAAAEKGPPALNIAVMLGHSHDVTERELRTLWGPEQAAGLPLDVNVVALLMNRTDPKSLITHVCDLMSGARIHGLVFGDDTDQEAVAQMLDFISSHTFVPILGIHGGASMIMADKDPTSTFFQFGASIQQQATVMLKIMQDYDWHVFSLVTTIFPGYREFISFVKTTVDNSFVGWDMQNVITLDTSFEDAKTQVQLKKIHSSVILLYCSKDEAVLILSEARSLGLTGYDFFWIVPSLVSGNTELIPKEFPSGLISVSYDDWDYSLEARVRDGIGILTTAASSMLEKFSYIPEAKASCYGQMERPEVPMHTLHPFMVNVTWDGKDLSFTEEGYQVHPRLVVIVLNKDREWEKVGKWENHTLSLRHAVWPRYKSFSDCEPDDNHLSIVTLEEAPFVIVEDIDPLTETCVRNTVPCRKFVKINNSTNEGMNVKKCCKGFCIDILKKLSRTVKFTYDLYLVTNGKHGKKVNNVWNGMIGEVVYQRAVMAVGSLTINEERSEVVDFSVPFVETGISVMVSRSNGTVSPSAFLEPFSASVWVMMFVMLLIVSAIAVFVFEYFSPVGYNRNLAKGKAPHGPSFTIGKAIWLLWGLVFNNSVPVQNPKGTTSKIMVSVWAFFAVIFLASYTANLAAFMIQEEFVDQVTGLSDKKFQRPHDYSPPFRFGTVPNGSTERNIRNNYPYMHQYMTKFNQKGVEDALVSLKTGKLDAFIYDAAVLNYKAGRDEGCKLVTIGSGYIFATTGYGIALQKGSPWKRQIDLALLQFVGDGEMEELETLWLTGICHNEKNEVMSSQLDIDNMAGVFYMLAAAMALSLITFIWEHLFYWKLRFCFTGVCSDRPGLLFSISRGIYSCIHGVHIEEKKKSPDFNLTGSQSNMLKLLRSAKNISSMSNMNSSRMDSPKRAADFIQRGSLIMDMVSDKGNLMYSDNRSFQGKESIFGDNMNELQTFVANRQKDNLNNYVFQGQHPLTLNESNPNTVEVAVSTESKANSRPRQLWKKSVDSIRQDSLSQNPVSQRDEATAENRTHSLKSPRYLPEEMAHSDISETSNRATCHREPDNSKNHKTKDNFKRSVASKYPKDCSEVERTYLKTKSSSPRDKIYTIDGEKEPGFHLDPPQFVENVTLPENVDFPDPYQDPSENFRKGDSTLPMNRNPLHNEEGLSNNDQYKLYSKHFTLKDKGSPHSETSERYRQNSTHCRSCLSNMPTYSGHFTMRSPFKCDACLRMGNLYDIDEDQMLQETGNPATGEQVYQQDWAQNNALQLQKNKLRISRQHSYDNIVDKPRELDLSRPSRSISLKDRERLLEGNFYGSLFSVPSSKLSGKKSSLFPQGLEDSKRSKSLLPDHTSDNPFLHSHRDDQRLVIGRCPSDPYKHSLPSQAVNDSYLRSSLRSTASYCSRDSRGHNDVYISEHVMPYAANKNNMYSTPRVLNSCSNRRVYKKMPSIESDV
T2 sequence (Q13224 27-1484, other chains not shown): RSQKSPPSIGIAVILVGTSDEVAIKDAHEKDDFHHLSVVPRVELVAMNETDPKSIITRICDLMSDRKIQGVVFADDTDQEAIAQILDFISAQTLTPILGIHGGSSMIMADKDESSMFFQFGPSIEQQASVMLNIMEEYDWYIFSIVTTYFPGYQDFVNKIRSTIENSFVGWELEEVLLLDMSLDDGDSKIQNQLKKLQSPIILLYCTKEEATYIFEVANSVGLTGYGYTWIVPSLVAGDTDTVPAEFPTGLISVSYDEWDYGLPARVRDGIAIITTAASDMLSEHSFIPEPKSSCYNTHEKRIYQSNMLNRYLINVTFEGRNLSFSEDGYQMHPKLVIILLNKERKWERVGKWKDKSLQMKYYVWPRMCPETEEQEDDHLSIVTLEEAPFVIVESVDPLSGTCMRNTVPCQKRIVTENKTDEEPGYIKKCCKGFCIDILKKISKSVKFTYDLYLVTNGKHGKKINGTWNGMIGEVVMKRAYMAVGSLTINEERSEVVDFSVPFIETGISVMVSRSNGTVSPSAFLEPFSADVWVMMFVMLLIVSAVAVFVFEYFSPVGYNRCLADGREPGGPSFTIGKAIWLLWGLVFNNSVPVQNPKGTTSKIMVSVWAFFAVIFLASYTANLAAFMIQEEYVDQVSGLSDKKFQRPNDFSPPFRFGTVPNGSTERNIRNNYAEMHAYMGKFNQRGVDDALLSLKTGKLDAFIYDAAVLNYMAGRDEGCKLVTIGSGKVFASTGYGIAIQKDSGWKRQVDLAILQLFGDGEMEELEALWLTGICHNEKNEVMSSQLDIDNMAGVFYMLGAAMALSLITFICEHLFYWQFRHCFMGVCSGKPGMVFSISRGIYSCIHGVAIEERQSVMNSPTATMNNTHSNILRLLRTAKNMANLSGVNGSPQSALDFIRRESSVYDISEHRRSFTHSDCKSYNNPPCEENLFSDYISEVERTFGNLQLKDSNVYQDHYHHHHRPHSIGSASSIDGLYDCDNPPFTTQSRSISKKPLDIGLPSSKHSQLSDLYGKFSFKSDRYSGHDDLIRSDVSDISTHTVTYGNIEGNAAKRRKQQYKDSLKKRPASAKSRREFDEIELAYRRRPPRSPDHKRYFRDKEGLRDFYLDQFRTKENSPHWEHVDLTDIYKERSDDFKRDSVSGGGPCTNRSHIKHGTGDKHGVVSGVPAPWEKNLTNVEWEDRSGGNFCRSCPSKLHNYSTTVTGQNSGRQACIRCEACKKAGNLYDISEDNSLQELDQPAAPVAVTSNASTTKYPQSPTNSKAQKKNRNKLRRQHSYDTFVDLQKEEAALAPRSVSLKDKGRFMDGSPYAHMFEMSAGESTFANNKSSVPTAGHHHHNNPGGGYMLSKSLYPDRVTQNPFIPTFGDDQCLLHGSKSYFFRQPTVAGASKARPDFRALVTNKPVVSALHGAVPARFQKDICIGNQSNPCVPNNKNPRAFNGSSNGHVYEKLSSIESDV

SMILES	Avg Emax 2A (%) [1]	EC50 [1]	Avg Emax 2B (%) [2]	EC50 [2]	Emax [1]	Emax [2]
C[C@H](CCC[C@H](O)C(F)(F)F)[C@H]1CC[C@H]2[C@@H]3CC[C@H]4C[C@](O)(C(F)(F)F)CC[C@]4(C)[C@H]3CC[C@]12C [Compound 11934]	113.4%	729 nM	70.0%	470 nM		
C[C@H](CCCC1(O)CC1)[C@H]1CC[C@H]2[C@@H]3CC[C@H]4C[C@](O)(C(F)(F)F)CC[C@]4(C)[C@H]3CC[C@]12C [Compound 4115]					186%	195%
C[C@H](CCC1(O)CCC(C(C)(C)C)CC1)[C@H]1CC[C@H]2[C@@H]3CC[C@H]4C[C@](O)(C(F)(F)F)CC[C@]4(C)[C@H]3CC[C@]12C (some centres unmarked) [Compound 4360]		> 10000 nM		> 10000 nM	38.1%	14.6%
CCC(O)CCC[C@@H](C)[C@H]1CC[C@H]2[C@@H]3CC=C4C[C@](O)(CC)CC[C@@H]4[C@H]3CC[C@]12C (some centres unmarked) [Compound 10673]	215.5%	254 nM	213.5%	180 nM		
C[C@H](CC[C@H](O)C(C)(C)C)[C@H]1CC[C@H]2[C@@H]3CC[C@H]4C[C@](O)(C(F)(F)F)CC[C@]4(C)[C@H]3CC[C@]12C [Compound 2184]					234%	258%
CC[C@]1(O)CC[C@H]2C(=CC[C@@H]3[C@@H]2CC[C@]2(C)[C@@H]([C@H](C)CCCC4(O)CCC(C)(C)CC4)CC[C@@H]32)C1 [Compound 10317]	56.7%	> 10000 nM	59.9%	> 10000 nM		
C[C@H](CCC1(O)CCCCCC1)[C@H]1CC[C@H]2[C@@H]3CC[C@H]4C[C@](O)(C(F)(F)F)CC[C@]4(C)[C@H]3CC[C@]12C [Compound 3983]					176%	300%
CC[C@H](O)CCC[C@@H](C)[C@H]1CC[C@H]2[C@@H]3CC=C4C[C@](O)(CC)CC[C@@H]4[C@H]3CC[C@]12C [Compound 10949]	97.4%	66.4 nM	147.4%	138 nM		
C[C@H](CC[C@]1(O)CCOC1)[C@H]1CC[C@H]2[C@@H]3CC=C4C[C@](O)(C(F)(F)F)CC[C@]4(C)[C@H]3CC[C@]12C [Compound 3496]					319%	369%
CC(C)[C@H](O)CC[C@@H](C)[C@H]1CC[C@H]2[C@@H]3CC=C4C[C@](O)(C(F)(F)F)CC[C@]4(C)[C@H]3CC[C@]12C [Compound 1-B]					262%	285%
C[C@H](CCC1(O)CCC(C)(C)CC1)[C@H]1CC[C@H]2[C@@H]3CC[C@@H]4C[C@](O)(C(F)(F)F)CC[C@]4(C)[C@H]3C(=O)C[C@]12C [Compound 5294]	32.4%	> 10000 nM	13.9%	> 10000 nM		
C[C@H](CCC[C@H](O)C(C)(C)C)[C@H]1CC[C@H]2[C@@H]3CC[C@H]4C[C@](O)(C(F)(F)F)CC[C@]4(C)[C@H]3CC[C@]12C [Compound 12156]	43.2%	154 nM	111.2%	2460 nM		
